A value given as a limit tells only on which side of the number the result lay.

The target of this experiment is T1, human EP2 (PTGER2) (Homo sapiens, UniProt P43116).
T1 construct: Cayman Chemical (Human EP2 Reporter Assay Kit)
The experiment is described as follows: EP2 antagonist assay (HEK-293 CNG membrane potential cAMP assay / 293T SEAP reporter assay, PGE2-stimulated). The format is cell-based. Particulars: EP2 antagonist activity; concentration for 50% inhibition of signal compared to DMSO. The source says:
1. The HEK-293 CNG (Cyclic Nucleotide Gated) cell line expressing a modified CNG channel that leads to cell membrane depolarization in response to elevated intracellular cAMP levels, which can be measured using a fluorescent membrane potential dye, was engineered to express human EP2 (PTGER2) or EP4 (EP4R). The resulting cell line ACTOne™ PTGER2 or ACTOne™ EP4R as well as the fluorescent membrane potential dye were purchased from eEnzyme (Gaithersburg, MD, US) and used in this assay. Briefly, cells were plated at 1.2×10^4 cells/well in 20 μL DMEM supplemented with 2% Fetal Bovine Serum (FBS, VWR International), 1x Penicillin/Streptomycin (GenClone), 0.2 μg/mL puromycin (InvivoGen) and 50 μg/mL G418 (InvivoGen) on a 384 well plate (Greiner). The next day, cells were dye-loaded with 20 μL/well of 1x Dye-loading solution (eENZYME) following the manufacturer's instruction. After 2 hours of incubation at room temperature (RT) in the dark, a pre-read was made to obtain the background signals using CLARIOstar plate reader (BMG LABTECH, Germany) with the following filter settings: excitation=530/20 nm, emission=590/20 nm. Next, a serial dilution of compound (plus a DMSO control) were added to the plate (5 μL/well) and the reaction was incubated at RT for 15 min before adding 5 μL of PGE2 to every well for a final concentration of 5 nM. All wells were duplicated. The plate was then further incubated at RT for 30 min prior to a final read with the same machine settings. Background-subtracted signals were used to calculate IC50 values.
2. Human EP2 and EP4 Reporter Assay Kits were purchased from Cayman Chemical (Ann Arbor, MI, USA). The assay was performed following the provided User Manual. Briefly, a reverse transfection was performed by seeding 6.0×10^4 of 293T cells (ATCC) to each well of the provided Strip Plate coated with a proprietary transfection complex containing DNA constructs for expressing human EP2 or EP4 and a cAMP response element regulated secreted alkaline phosphatase (SEAP) reporter, in 200 μL DMEM supplemented with 2% FBS and incubated for 20-24 hours at 37° C. with 5% CO2. After the incubation, the culture medium was carefully removed, and the cells were replenished with 150 μL pre-warmed serum-free medium. PGE2 and test compounds were prepared together at 4x the desired final concentration, and 50 μL was added to each assigned well with the final concentration of 13 nM and 2 nM PGE2 for EP2 and EP4 assay, respectively. After 6-8 hours of incubation, 10 μL media from each well was transferred to corresponding well of a new plate, which was then sealed and incubated at 65° C. for 30 min. The plate was then cooled down to RT and 50 μL SEAP substrate was added to each well. Luminescence signal was measured using a CLARIOstar plate reader.
The IC50 value was determined as the concentration for 50% inhibition of signal compared to DMSO (A: IC50 […]; B: IC50 between 100 nM and 1,000 nM; C: IC50≥1,000 nM).
Background: cAMP levels reflect the balance of adenylyl cyclase and phosphodiesterase activity.

T1 sequence (P43116 whole entry): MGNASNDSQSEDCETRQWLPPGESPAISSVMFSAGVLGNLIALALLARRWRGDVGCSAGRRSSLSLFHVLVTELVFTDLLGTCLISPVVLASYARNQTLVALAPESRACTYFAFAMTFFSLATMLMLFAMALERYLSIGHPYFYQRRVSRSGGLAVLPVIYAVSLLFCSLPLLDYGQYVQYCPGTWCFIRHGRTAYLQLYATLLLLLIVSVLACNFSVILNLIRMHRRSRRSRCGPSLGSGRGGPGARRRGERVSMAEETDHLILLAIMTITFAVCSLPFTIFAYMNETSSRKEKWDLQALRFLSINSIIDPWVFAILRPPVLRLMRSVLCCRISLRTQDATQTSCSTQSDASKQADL

Turning to `N#Cc1cccc(-c2ccc(C(=O)NCc3ccc(C(=O)O)cc3)c3c2ccn3Cc2ccc(C(F)(F)F)cc2)c1` [Example 22, 4-((4-(3-cyanophenyl)-1-(4-(trifluoromethyl)benzyl)-1H-indole-7-carboxamido)methyl)benzoic acid], the 50% inhibitory concentration (IC50) (as a rule, the concentration needed to halve the response being measured) lay within 0.1 to 1 µM.

Take `O=C(O)c1ccc(CNC(=O)c2ccc(-c3ccc(F)c(F)c3)c3ccn(Cc4ccc(C(F)(F)F)cc4)c23)cc1` [Example 23, 4-((4-(3,4-difluorophenyl)-1-(4-(trifluoromethyl)benzyl)-1H-indole-7-carboxamido)methyl) benzoic acid]: the half-inhibitory concentration (IC50) is at least 1 µM.

`O=C(O)c1ccc(CNC(=O)c2ccc(-c3cccc(C(F)(F)F)c3)c3ccn(Cc4ccc(C(F)(F)F)cc4)c23)cc1` [Example 24, 4-((1-(4-(trifluoromethyl)benzyl)-4-(3-(trifluoromethyl)phenyl)-1H-indole-7-carboxamido)-methyl)benzoic acid] showed an IC50 of at least 1 µM.

As for `O=C(O)c1ccc(CNC(=O)c2ccc(-c3ccc(F)cc3)c3ccn(Cc4ccc(C(F)(F)F)cc4)c23)cc1` [Example 25, 4-((4-(4-fluorophenyl)-1-(4-(trifluoromethyl)benzyl)-1H-indole-7-carboxamido)methyl)benzoic acid], the concentration for half-maximal inhibition (IC50) is at least 1 µM.

In turn, `O=C(O)c1ccc(CNC(=O)c2ccc(-c3ccccc3)c3ccn(Cc4ccc(C(F)(F)F)cc4)c23)cc1` [Example 26, 4-((4-phenyl-1-(4-(trifluoromethyl)benzyl)-1H-indole-7-carboxamido)methyl)benzoic acid] came in with a half-maximal inhibitory concentration (IC50) of 0.1 to 1 µM.

As to `O=C(O)c1ccc(CNC(=O)c2ccc(-c3cc(F)cc(F)c3)c3ccn(Cc4ccc(C(F)(F)F)cc4)c23)cc1` [Example 27, 4-((4-(3,5-difluorophenyl)-1-(4-(trifluoromethyl)benzyl)-1H-indole-7-carboxamido)methyl) benzoic acid], the 50% inhibitory concentration (IC50) was at least 1 µM.

As for `O=C(O)c1ccc(CNC(=O)c2ccc(-c3cc(F)cc(C(F)(F)F)c3)c3ccn(Cc4ccc(C(F)(F)F)cc4)c23)cc1` [Example 28, 4-((4-(3-fluoro-5-(trifluoromethyl)phenyl)-1-(4-(trifluoromethyl)benzyl)-1H-indole-7-carboxamido)methyl)benzoic acid], the IC50 was at least 1 µM.

For the compound `C[C@@H](NC(=O)c1ccc(-c2ccccc2)c2ccn(Cc3ccc(C(F)(F)F)cc3)c12)c1ccc(C(=O)O)cc1` [Example 29, (R)-4-(1-(4-phenyl-1-(4-(trifluoromethyl)benzyl)-1H-indole-7-carboxamido)ethyl) benzoic acid], the concentration for half-maximal inhibition (IC50) was at least 1 µM.

In turn, `C[C@@H](NC(=O)c1ccc(-c2cccc(C#N)c2)c2ccn(Cc3ccc(C(F)(F)F)cc3)c12)c1ccc(C(=O)O)cc1` [Example 30, (R)-4-(1-(4-(3-cyanophenyl)-1-(4-(trifluoromethyl)benzyl)-1H-indole-7-carboxamido)ethyl) benzoic acid] showed a half-maximal inhibitory concentration (IC50) of at least 1 µM.

`C[C@@H](NC(=O)c1ccc(-c2ccc(F)c(F)c2)c2ccn(Cc3ccc(C(F)(F)F)cc3)c12)c1ccc(C(=O)O)cc1` [Example 31, (R)-4-(1-(4-(3,4-difluorophenyl)-1-(4-(trifluoromethyl)benzyl)-1H-indole-7-carboxamido)ethyl)benzoic acid] showed a half-inhibitory concentration (IC50) of at least 1 µM.

`C[C@@H](NC(=O)c1ccc(-c2cc(F)cc(F)c2)c2ccn(Cc3ccc(C(F)(F)F)cc3)c12)c1ccc(C(=O)O)cc1` [Example 32, (R)-4-(1-(4-(3,5-difluorophenyl)-1-(4-(trifluoromethyl)benzyl)-1H-indole-7-carboxamido)ethyl) benzoic acid] registered a 50% inhibitory concentration (IC50) of at least 1 µM.

`C[C@@H](NC(=O)c1ccc(-c2cccc(C(F)(F)F)c2)c2ccn(Cc3ccc(C(F)(F)F)cc3)c12)c1ccc(C(=O)O)cc1` [Example 33, (R)-4-(1-(1-(4-(trifluoromethyl)benzyl)-4-(3-(trifluoromethyl)phenyl)-1H-indole-7-carboxamido)ethyl) benzoic acid] had an IC50 of at least 1 µM.

Regarding `C[C@@H](NC(=O)c1ccc(-c2cc(F)cc(C(F)(F)F)c2)c2ccn(Cc3ccc(C(F)(F)F)cc3)c12)c1ccc(C(=O)O)cc1` [Example 34, (R)-4-(1-(4-(3-fluoro-5-(trifluoromethyl)phenyl)-1-(4-(trifluoromethyl)benzyl)-1H-indole-7-carboxamido)ethyl)benzoic acid], the IC50 is at least 1 µM.

In the case of `C[C@@H](NC(=O)c1ccc(-c2ccc(F)cc2)c2ccn(Cc3ccc(C(F)(F)F)cc3)c12)c1ccc(C(=O)O)cc1` [Example 35, (R)-4-(1-(4-(4-fluorophenyl)-1-(4-(trifluoromethyl)benzyl)-1H-indole-7-carboxamido)ethyl)benzoic acid], the IC50 is at least 1 µM.

Compound `O=C(O)c1ccc(C2(NC(=O)c3ccc(-c4ccccc4)c4ccn(Cc5ccc(C(F)(F)F)cc5)c34)CC2)cc1` [Example 36, 4-(1-(4-phenyl-1-(4-(trifluoromethyl)benzyl)-1H-indole-7-carboxamido)cyclopropyl)benzoic acid] came in with a half-maximal inhibitory concentration (IC50) of at least 1 µM.

`N#Cc1cccc(-c2ccc(C(=O)NC3(c4ccc(C(=O)O)cc4)CC3)c3c2ccn3Cc2ccc(C(F)(F)F)cc2)c1` [Example 37, 4-(1-(4-(3-cyanophenyl)-1-(4-(trifluoromethyl)benzyl)-1H-indole-7-carboxamido)cyclopropyl)benzoic acid] had an IC50 of at least 1 µM.

In turn, `O=C(O)c1ccc(C2(NC(=O)c3ccc(-c4ccc(F)c(F)c4)c4ccn(Cc5ccc(C(F)(F)F)cc5)c34)CC2)cc1` [Example 38, 4-(1-(4-(3,4-difluorophenyl)-1-(4-(trifluoromethyl)benzyl)-1H-indole-7-carboxamido)cyclopropyl)benzoic acid] came in with an IC50 of at least 1 µM.

Consider `O=C(O)c1ccc(C2(NC(=O)c3ccc(-c4cc(F)cc(F)c4)c4ccn(Cc5ccc(C(F)(F)F)cc5)c34)CC2)cc1` [Example 39, 4-(1-(4-(3,5-difluorophenyl)-1-(4-(trifluoromethyl)benzyl)-1H-indole-7-carboxamido)cyclopropyl)benzoic acid], for which the IC50 was 0.1 to 1 µM.

For the compound `O=C(O)c1ccc(C2(NC(=O)c3ccc(-c4cccc(C(F)(F)F)c4)c4ccn(Cc5ccc(C(F)(F)F)cc5)c34)CC2)cc1` [Example 40, 4-(1-(1-(4-(trifluoromethyl)benzyl)-4-(3-(trifluoromethyl)phenyl)-1H-indole-7-carboxamido)cyclopropyl)benzoic acid], the IC50 was at least 1 µM.

Compound `O=C(O)c1ccc(C2(NC(=O)c3ccc(-c4cc(F)cc(C(F)(F)F)c4)c4ccn(Cc5ccc(C(F)(F)F)cc5)c34)CC2)cc1` [Example 41, 4-(1-(4-(3-fluoro-5-(trifluoromethyl)phenyl)-1-(4-(trifluoromethyl)benzyl)-1H-indole-7-carboxamido)cyclopropyl)benzoic acid] displayed an IC50 of at least 1 µM.

Consider `O=C(O)c1ccc(C2(NC(=O)c3ccc(-c4ccc(F)cc4)c4ccn(Cc5ccc(C(F)(F)F)cc5)c34)CC2)cc1` [Example 42, 4-(1-(4-(4-fluorophenyl)-1-(4-(trifluoromethyl)benzyl)-1H-indole-7-carboxamido)cyclopropyl)-benzoic acid], for which the IC50 was at least 1 µM.

Compound `O=C(O)c1ccc(C2(NC(=O)c3cc(Nc4ccccc4)cc4ccn(Cc5ccc(C(F)(F)F)cc5)c34)CC2)cc1` [Example 43, 4-(1-(5-(phenylamino)-1-(4-(trifluoromethyl)benzyl)-1H-indole-7-carboxamido)cyclopropyl)benzoic acid] had a half-maximal inhibitory concentration (IC50) below 0.1 µM.
